# Assay results reported in ChEMBL document CHEMBL1142055, “Quinolinium salt as a potent inhibitor of lymphocyte apoptosis” (Bioorg Med Chem Lett, 2005).
# Species on record: Mus musculus
# Experiment: Effective concentration by cytoprotection activity on glucocorticoid-induced apoptosis in murine thymocytes was determined in vitro
# Format: functional
row,Structure (SMILES),EC50 [µM]
1,CO/N=C(/Cn1c(=O)ccc2ccccc21)c1ccc(C)cc1,> 10
2,CO/N=C(/C[n+]1ccccc1)c1ccc(N2CCCC2)cc1,0.28
3,Cc1ccc(C(=O)C[n+]2ccccc2)cc1,> 10
4,CO/N=C(/C[n+]1cccc2ccccc21)c1ccc(C)cc1,0.35
5,CO/N=C(/C[n+]1ccccc1)c1ccc(C)cc1,5.1
6,CO/N=C(/C[n+]1cccc2ccccc21)c1ccc(N2CCCC2)cc1,0.013
7,Cc1ccc(C(=O)C[n+]2cccc3ccccc32)cc1,> 10
8,CO/N=C(/Cn1c(=O)ccc2ccccc21)c1ccc(N2CCCC2)cc1,> 10
9,Cc1ccc(C(=O)Cn2c(=O)ccc3ccccc32)cc1,> 10
10,Cc1ccc(-c2cn3c4c(sc3n2)CCCC4)cc1,2.5
11,Cc1ccc(C(=O)Cn2c3c(sc2=N)CCCC3)cc1,4.4
